Reference: patent publication US6905861B2, “D-aminoacylases, method for producing the same, and method for producing D-amino acids using the same” (Daicel Chemical Industries, Ltd., priority 1998, dated 2005)

How the values were obtained:
[1] = test system: Hypomyces mycophilus IFO 6785 strain; assay: D-amino acid production and optical purity from N-acetyl-DL-amino acid by washed fungal cells; assay type: cell-based; conditions: Hypomyces mycophilus IFO 6785 cells; 0.1% substrate, pH 7.5, 30° C., 24 hours
Description: (§1) A platinum loopful of Hypomyces rosellus IFO 6911 strain, Hypomyces sepulcralis IFO 9102 strain, or Hypomyces mycophilus IFO 6785 strain was inoculated into 25 ml of YM medium (containing 0.3% yeast extract, 0.3% malt extract, 0.5% peptone, and 2.0% glucose; pH 6.0) in a 500-ml shouldered flask. The fungi were shake-cultured at 24° C. for 3 days. After culturing, a 5-ml aliquot of the culture medium was centrifuged in a refrigerated centrifuge to collect the fungal cells. The cells were washed with physiological saline solution (5 ml), and collected by centrifugation again. A reaction solution (containing 0.1% N-acetyl-DL-amino acid shown in Table 2 below in Tris-HCl buffer, pH 7.5) was added to the cells thus collected. The mixture was incubated in a 5-ml test tube with shaking at 30° C. for 24 hours. D-Amino acid thus produced was assayed by high-performance liquid chromatography (column, CROWNPAK CR (Daicel Chemical); column temperature, 26° C.; mobile phase, HClO4 aqueous solution pH 2.0; flow rate, 1 ml/min; and detection, 200 nm) and examined for the optical purity.

[2] = test system: Hypomyces rosellus IFO 6911 strain; assay: as above; assay type: cell-based; conditions: Hypomyces rosellus IFO 6911 cells; 0.1% substrate, pH 7.5, 30° C., 24 hours
Description: as §1

[3] = test system: Hypomyces sepulcralis IFO 9102 strain; assay: as above; assay type: cell-based; conditions: Hypomyces sepulcralis IFO 9102 cells; 0.1% substrate, pH 7.5, 30° C., 24 hours
Description: as §1

[4] = test system: D-aminoacylase (crude enzyme) of Auricularia auriculajudae IFO 5949; assay: Crude enzyme activity for each N-Ac-D-amino acid substrate; assay type: biochemical; conditions: Auricularia auriculajudae IFO 5949 crude enzyme; 20 mM substrate, 1 mM CoCl2, 50 mM phosphate buffer pH 7.0
Description: (§2) Auricularia auriculajudae IFO 5949, Pythium aphanidermaatum IFO 7030, and Menisporopsis novaezelandiae IFO 9179 were each inoculated into sterilized media (100 ml each) (Czapek Dox Broth for IFO 5949, YM1 medium for IFO 7030, and POTATO DEXTROSE BROTH for IFO 9179) in 500-ml Erlenmeyer flasks. The fungi were cultured on a rotary shaker at 210 rpm at 24° C. for 7 days and collected by centrifugation using a […] centrifuge with a RPR10-2 rotor at 8,000 rpm (12,500×g) for 20 min. […] Disrupted cells thus obtained were centrifuged using a […] centrifuge with a RPR20-2 rotor at 17,500 rpm (38,000×g) for 30 min at 4° C. to obtain the supernatant as the crude enzyme. […] Figures in the table denote the amount (mM) of D-amino acids produced from the corresponding N-acetyl-D-amino acids. The D-aminoacylase activity was detected in all the strains tested, producing D-amino acid from the corresponding N-acetyl-D-amino acid.

[5] = test system: D-aminoacylase (crude enzyme) of Menisporopsis novaezelandiae IFO 9179; assay: as above; assay type: biochemical; conditions: Menisporopsis novaezelandiae IFO 9179 crude enzyme; 20 mM substrate, 1 mM CoCl2, 50 mM phosphate buffer pH 7.0
Description: as §2

[6] = test system: D-aminoacylase (crude enzyme) of Pythium aphanidermaatum IFO 7030; assay: as above; assay type: biochemical; conditions: Pythium aphanidermaatum IFO 7030 crude enzyme; 20 mM substrate, 1 mM CoCl2, 50 mM phosphate buffer pH 7.0
Description: as §2

[7] = test system: D-aminoacylase; assay: Substrate specificity of purified D-aminoacylase (TNBS method); assay type: biochemical, Hypomyces mycophilus IFO 6785; conditions: for percentage of the specific activity compared with that for N-acetyl-D-methionine taken as 100%, D-enantiomer: 20 mM substrate, 50 mM Tris-HCl pH 7.5, 30° C., 20 min; for activity of the enzyme for the substrate (in words): summary of Table 5
Description: The enzyme activity was assayed by determining the amount of amino acid produced using the TNBS method and the HPLC method. In the TMBS method, 100 mM Na2B4O7 (0.5 ml) was added to a sample solution containing amino acid (0.5 ml), 20 μl of 110 mM TNBS (trinitrobenzenesulfonic acid) was then added, and the resulting mixture was quickly stirred. After 5 min, 100 mM NaH2PO4 containing 1.5 mM Na2SO3 (2 ml) was added to the reaction mixture to terminate the color reaction, and the absorbance at 420 nm was measured. HPLC was performed by subjecting a sample solution containing amino acid to high-performance liquid chromatography using an ODS column (column, Wakosil II 5C18 (4.6 dia.×250 mm) (Wako Pure Chemical); eluent, CH3CN/50 mM KH2PO4. H3PO4 (pH 2.5)=2:8; detection, A280 nm; and flow rate, 1.0 ml/min). The retention times were 3.5 min for D-tryptophan and 9.8 min for N-acetyl-D-tryptophan. Using D-tryptophan as the assay standard, one unit (or U) of the enzyme was defined as the amount of the enzyme required to produce 1 μmol of D-tryptophan at 30° C. for 1 min.
Substrate specificity of the enzyme was expressed as the percentage of the specific activity compared with that for N-acetyl-D-methionine taken as 100%. N-chloroacetyl-D-phenylalanine, N-acetyl-D-valine, N-acetyl-D-phenylalanine, N-acetyl-D-tryptophan, N-acetyl-D-leucine, N-acetyl-L-valine, N-acetyl-L-phenylalanine, N-acetyl-L-tryptophan, and N-acetyl-L-leucine substrates were used for the comparison. The enzyme reaction was performed in 50 mM Tris-HCl (pH 7.5) containing 1 µl of the enzyme solution and 20 mM of each substrate (total volume 1.0 ml) at 30° C. for 20 min, and terminated by adding 0.5 ml of a TCA reaction terminating solution according to Tsai et al. (consisting of 110 mM trichloroacetic acid, 220 mM sodium acetate, and 330 mM acetic acid). The enzyme activity was assayed by the TNBS method as described in Example 4(2).

[8] = test system: Fusarium solani IFO 9974; assay: D-amino acid production from N-acetyl-D-amino acid by washed fungal cells; assay type: cell-based; conditions: Fusarium solani IFO 9974 cells; 0.1% substrate, Tris-HCl pH 7.5, 30° C., 24 hours
Description: (§3) A platinum loopful of Hypomyces aurantius IFO 6847 strain, Hypomyces broomeanus IFO 9164 strain, Hypomyces rosellus IFO 6911 strain, Hypomyces chrysospermus IFO 6817 strain, Hypomyces sepulcralis IFO 9102 strain, Hypomyces subiculosus IFO 6892 strain, Hypomyces mycophilus ATCC 76474 or IFO 6785 strain, or Fusarium solani IFO 9974 or IFO 9975 strain was inoculated into 25 ml of YM medium (containing 0.3% yeast extract, 0.3% malt extract, 0.5% peptone, and 2.0% glucose, pH 6.0) in a 500-ml shouldered flask. The fungi were shake-cultured at 24° C. for 3 days. After culturing, a 5-ml aliquot of the culture medium was centrifuged in a refrigerated centrifuge to collect the fungal cells. The cells were washed with physiological saline solution (5 ml) and collected by centrifugation again. A reaction solution (containing 0.1% N-acetyl-D-amino acid shown in Table 1 below in Tris-HCl buffer, pH 7.5) was then added to the cells thus collected. The mixture was incubated in a 5-ml test tube with shaking at 30° C. for 24 hours.
(§4) D-Amino acid thus produced was determined by high-performance liquid chromatography (column, CROWNPAK CR (Daicel Chemical); column temperature, 26° C.; cooled in ice for only valine; mobile phase, HClO4 aqueous solution, pH 2.0; flow rate, 1 ml/min; and detection, 200 nm).

[9] = test system: Fusarium solani IFO 9975 strain; assay: as above; assay type: cell-based; conditions: Fusarium solani IFO 9975 cells; 0.1% substrate, Tris-HCl pH 7.5, 30° C., 24 hours
Description: as §3, §4

[10] = test system: Hypomyces aurantius IFO 6847 strain; assay: as above; assay type: cell-based; conditions: Hypomyces aurantius IFO 6847 cells; 0.1% substrate, Tris-HCl pH 7.5, 30° C., 24 hours
Description: as §3, §4

[11] = test system: Hypomyces broomeanus IFO 9164 strain; assay: as above; assay type: cell-based; conditions: Hypomyces broomeanus IFO 9164 cells; 0.1% substrate, Tris-HCl pH 7.5, 30° C., 24 hours
Description: as §3, §4

[12] = test system: Hypomyces chrysospermus IFO 6817 strain; assay: as above; assay type: cell-based; conditions: Hypomyces chrysospermus IFO 6817 cells; 0.1% substrate, Tris-HCl pH 7.5, 30° C., 24 hours
Description: as §3, §4

[13] = test system: Hypomyces mycophilus ATCC 76474; assay: as above; assay type: cell-based; conditions: Hypomyces mycophilus ATCC 76474 cells; 0.1% substrate, Tris-HCl pH 7.5, 30° C., 24 hours
Description: as §3, §4

[14] = test system: Hypomyces mycophilus IFO 6785 strain; assay: as above; assay type: cell-based; conditions: Hypomyces mycophilus IFO 6785 cells; 0.1% substrate, Tris-HCl pH 7.5, 30° C., 24 hours
Description: as §3, §4

[15] = test system: Hypomyces rosellus IFO 6911 strain; assay: as above; assay type: cell-based; conditions: Hypomyces rosellus IFO 6911 cells; 0.1% substrate, Tris-HCl pH 7.5, 30° C., 24 hours
Description: as §3, §4

[16] = test system: Hypomyces sepulcralis IFO 9102 strain; assay: as above; assay type: cell-based; conditions: Hypomyces sepulcralis IFO 9102 cells; 0.1% substrate, Tris-HCl pH 7.5, 30° C., 24 hours
Description: as §3, §4

[17] = test system: Hypomyces subiculosus IFO 6892 strain; assay: as above; assay type: cell-based; conditions: Hypomyces subiculosus IFO 6892 cells; 0.1% substrate, Tris-HCl pH 7.5, 30° C., 24 hours
Description: as §3, §4

amount of D-amino acids produced from the corresponding N-acetyl-D-amino acids [4] [mM]	amount of D-amino acids produced from the corresponding N-acetyl-D-amino acids [5] [mM]	amount of D-amino acids produced from the corresponding N-acetyl-D-amino acids [6] [mM]	percentage of the specific activity compared with that for N-acetyl-D-methionine taken as 100%, D-enantiomer [7] [%]	activity of the enzyme for the substrate (in words) [7]	SMILES	D-amino acid produced from N-acetyl-DL-amino acid [1] [mg/mL]	D-amino acid produced from N-acetyl-DL-amino acid [2] [mg/mL]	D-amino acid produced from N-acetyl-DL-amino acid [3] [mg/mL]	D-amino acid produced from N-acetyl-D-amino acid [8] [mg/mL]	D-amino acid produced from N-acetyl-D-amino acid [9] [mg/mL]	D-amino acid produced from N-acetyl-D-amino acid [10] [mg/mL]	D-amino acid produced from N-acetyl-D-amino acid [11] [mg/mL]	D-amino acid produced from N-acetyl-D-amino acid [12] [mg/mL]	D-amino acid produced from N-acetyl-D-amino acid [13] [mg/mL]	D-amino acid produced from N-acetyl-D-amino acid [14] [mg/mL]	D-amino acid produced from N-acetyl-D-amino acid [15] [mg/mL]	D-amino acid produced from N-acetyl-D-amino acid [16] [mg/mL]	D-amino acid produced from N-acetyl-D-amino acid [17] [mg/mL]
4.34	0.44	–	298	especially active	CC(=O)N[C@H](Cc1ccccc1)C(=O)O [N-acetyl-D-phenylalanine]	–	–	–	0.001	0.002	0.005	0.004	0.003	0.003	0.65	0.06	0.15	0.05
2.44	1.30	–	109	very active	CC(=O)N[C@H](Cc1c[nH]c2ccccc12)C(=O)O [N-acetyl-D-tryptophan]	–	–	–	0	0.001	0.008	0.002	0.001	0.27	0.40	0.08	0.01	0.002

More lines, now with the values behind:

SMILES	amount of D-amino acids produced from the corresponding N-acetyl-D-amino acids [4] [mM]	amount of D-amino acids produced from the corresponding N-acetyl-D-amino acids [5] [mM]	amount of D-amino acids produced from the corresponding N-acetyl-D-amino acids [6] [mM]	percentage of the specific activity compared with that for N-acetyl-D-methionine taken as 100%, D-enantiomer [7] [%]	activity of the enzyme for the substrate (in words) [7]	D-amino acid produced from N-acetyl-DL-amino acid [1] [mg/mL]	D-amino acid produced from N-acetyl-DL-amino acid [2] [mg/mL]	D-amino acid produced from N-acetyl-DL-amino acid [3] [mg/mL]	D-amino acid produced from N-acetyl-D-amino acid [8] [mg/mL]	D-amino acid produced from N-acetyl-D-amino acid [9] [mg/mL]	D-amino acid produced from N-acetyl-D-amino acid [10] [mg/mL]	D-amino acid produced from N-acetyl-D-amino acid [11] [mg/mL]	D-amino acid produced from N-acetyl-D-amino acid [12] [mg/mL]	D-amino acid produced from N-acetyl-D-amino acid [13] [mg/mL]	D-amino acid produced from N-acetyl-D-amino acid [14] [mg/mL]	D-amino acid produced from N-acetyl-D-amino acid [15] [mg/mL]	D-amino acid produced from N-acetyl-D-amino acid [16] [mg/mL]	D-amino acid produced from N-acetyl-D-amino acid [17] [mg/mL]
CC(=O)NC(Cc1ccccc1)C(=O)O (racemic) [N-acetyl-DL-phenylalanine]	–	–	–	–	–	0.16	0.21	0.12	–	–	–	–	–	–	–	–	–	–
CC(=O)NC(Cc1c[nH]c2ccccc12)C(=O)O (racemic) [N-acetyl-DL-tryptophan]	–	–	–	–	–	0.10	0.24	0.13	–	–	–	–	–	–	–	–	–	–
CC(=O)N[C@H](C)C(=O)O [N-acetyl-D-alanine, N-Acetyl-D-alanine]	1.46	0.09	0.29	0	–	–	–	–	–	–	–	–	–	–	–	–	–	–
CC(=O)N[C@@H](C(=O)O)C(C)C [N-acetyl-D-valine]	3.33	0.16	–	17.5	somewhat active	–	–	–	0	0.22	0.14	0.18	3.16	0.11	0.98	2.73	3.19	0.23
